Patent US20100076015A1, “Aminopyridine Derivatives” (VANTIA LIMITED, priority 2008, published 2010)

Each compound was assayed against T1, Human KLK1 (Homo sapiens, UniProt P06870) (assay: Determination of the IC50 for KLK1 (fluorogenic substrate H-DVal-Leu-Arg-AFC)). Conditions: 37° C.
T1 construct: purchased Callbiochem (Calbiochem)
Assay type: biochemical
Outline: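 Human KLK1 incubated at 37 °C with fluorogenic substrate H-DVal-Leu-Arg-AFC and a range of test compound concentrations. Residual activity was taken as initial reaction rate from absorbance change at 410 nm, and the IC50 derived from it.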

T1 sequence (P06870 25-262): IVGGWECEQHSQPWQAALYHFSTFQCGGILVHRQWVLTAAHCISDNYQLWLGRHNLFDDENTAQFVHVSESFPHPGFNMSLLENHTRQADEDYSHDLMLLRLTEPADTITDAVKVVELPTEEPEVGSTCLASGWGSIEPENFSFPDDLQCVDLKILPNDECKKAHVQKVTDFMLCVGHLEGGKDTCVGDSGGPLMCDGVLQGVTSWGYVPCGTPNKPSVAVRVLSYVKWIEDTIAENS

SMILES	IC50 [nM]
CC(C)N[C@H](Cc1ccccc1)C(=O)N[C@@H](Cc1ccc(F)c(F)c1)C(=O)NCc1ccc(N)nc1 [Example 184, (R)—N-[(S)-1-[(6-Amino-pyridin-3-ylmethyl)-carbamoyl]-2-(3,4-difluoro-phenyl)-ethyl]-2-isopropylamino-3-phenyl-propionamide]	44.4
Cc1ccc(-c2ccc(C(=O)N[C@@H](Cc3cccc4ccccc34)C(=O)NCc3ccc(N)nc3)[nH]2)cc1 [Example 292, 5-p-Tolyl-1H-pyrrole-2-carboxylic acid {(S)-1-[(6-amino-pyridin-3-ylmethyl)-carbamoyl]-2-naphthalen-1-yl-ethyl}-amide]	31.5
Nc1ccc(CNC(=O)[C@H](Cc2ccccc2Cl)NC(=O)[C@H]2CCCCN2)cn1 [Example 76, (R)-Piperidine-2-carboxylic acid [(S)-1-[(6-amino-pyridin-3-ylmethyl)-carbamoyl]-2-(2-chloro-phenyl)-ethyl]-amide]	21.8
CCC(C)[C@H](N)C(=O)N[C@@H](C(=O)NCc1ccc(N)nc1)[C@H](O)c1ccccc1 (stereo partly drawn) [Example 224, (S)-2-Amino-3-methyl-pentanoic acid {(1R,2R)-1-[(6-amino-pyridin-3-ylmethyl)-carbamoyl]-2-hydroxy-2-phenyl-ethyl}-amide]	61.6
CCC(C)[C@H](C(=O)N[C@@H](Cc1ccc(F)c(F)c1)C(=O)NCc1ccc(N)nc1)N(C)C (stereo partly drawn) [Example 178, (R)-2-Dimethylamino-3-methyl-pentanoic acid [(S)-1-[(6-amino-pyridin-3-ylmethyl)-carbamoyl]-2-(3,4-difluoro-phenyl)-ethyl]-amide]	15.9
CN(C)[C@@H](CO)C(=O)N[C@@H](CC1CCCCC1)C(=O)NCc1ccc(N)nc1 [Example 386, (S)—N-{(S)-1-[(6-Amino-pyridin-3-ylmethyl)-carbamoyl]-2-cyclohexyl-ethyl}-2-dimethylamino-3-hydroxy-propionamide]	260
CN(C)CC(=O)N[C@@H](Cc1ccc(Cl)c(Cl)c1)C(=O)NCc1ccc(N)nc1 [Example 153, (S)—N-(6-Amino-pyridin-3-ylmethyl)-3-(3,4-dichloro-phenyl)-2-(2-dimethylamino-acetylamino)-propionamide]	69.9
CC(C)N(C)[C@@H](CO)C(=O)N[C@@H](CC1CCCCC1)C(=O)NCc1ccc(N)nc1 [Example 388, (S)—N-{(S)-1-[(6-Amino-pyridin-3-ylmethyl)-carbamoyl]-2-cyclohexyl-ethyl}-3-hydroxy-2-(isopropyl-methyl-amino)-propionamide]	22.2
CCN(CC)CC(=O)N[C@@H](Cc1ccc(F)c(F)c1)C(=O)NCc1ccc(N)nc1 [Example 10, (S)—N-(6-Amino-pyridin-3-ylmethyl)-2-(2-diethylamino-acetylamino)-3-(3,4-difluoro-phenyl)-propionamide]	13.7
CCC(C)[C@H](N)C(=O)N[C@@H](Cc1ccc(F)c(F)c1)C(=O)NCc1ccc(N)nc1 (stereo partly drawn) [Example 83, (S)-2-Amino-3-methyl-pentanoic acid [(S)-1-[(6-amino-pyridin-3-ylmethyl)-carbamoyl]-2-(3,4-difluoro-phenyl)-ethyl]-amide]	158
Nc1ccc(CNC(=O)[C@H](Cc2ccc(F)c(F)c2)NC(=O)[C@H]2CCCN2CC(=O)O)cn1 [Example 135, {(R)-2-[(S)-1-[(6-Amino-pyridin-3-ylmethyl)-carbamoyl]-2-(3,4-difluoro-phenyl)-ethylcarbamoyl]-pyrrolidin-1-yl}-acetic acid]	17.3
CCCN(C)[C@@H](C)C(=O)N[C@@H](Cc1ccc(F)c(F)c1)C(=O)NCc1ccc(N)nc1 [Example 346, (S)—N-[(S)-1-[(6-Amino-pyridin-3-ylmethyl)-carbamoyl]-2-(3,4-difluoro-phenyl)-ethyl]-2-(methyl-propyl-amino)-propionamide]	21.3
CC(C)CN(CC(=O)N[C@@H](Cc1ccc(F)c(F)c1)C(=O)NCc1ccc(N)nc1)CC(C)C [Example 159, (S)—N-(6-Amino-pyridin-3-ylmethyl)-3-(3,4-difluoro-phenyl)-2-(2-diisobutylamino-acetylamino)-propionamide]	165
CCCN(C)[C@@H](C)C(=O)N[C@@H](Cc1ccc(F)cc1)C(=O)NCc1ccc(N)nc1 [Example 368, (S)—N-[(S)-1-[(6-Amino-pyridin-3-ylmethyl)-carbamoyl]-2-(4-fluoro-phenyl)-ethyl]-2-(methyl-propyl-amino)-propionamide]	19.4
COc1ccc2[nH]c(C(=O)N[C@@H](Cc3cccc(Cl)c3)C(=O)NCc3ccc(N)nc3C)cc2c1 [Example 316, 5-Methoxy-1H-indole-2-carboxylic acid [(S)-1-[(6-amino-2-methyl-pyridin-3-ylmethyl)-carbamoyl]-2-(3-chloro-phenyl)-ethyl]-amide]	76.7
CN1CCC[C@H]1C(=O)N[C@@H](C(=O)NCc1ccc(N)nc1)C(C1CCCCC1)C1CCCCC1 [Example 223, (S)-1-Methyl-pyrrolidine-2-carboxylic acid {(R)-1-[(6-amino-pyridin-3-ylmethyl)-carbamoyl]-2,2-dicyclohexyl-ethyl}-amide]	17.4
CN1C[C@H](O)C[C@@H]1C(=O)N[C@@H](Cc1ccc(F)c(F)c1)C(=O)NCc1ccc(N)nc1 [Example 148, (2R,4R)-4-Hydroxy-1-methyl-pyrrolidine-2-carboxylic acid [(S)-1-[(6-amino-pyridin-3-ylmethyl)-carbamoyl]-2-(3,4-difluoro-phenyl)-ethyl]-amide]	55.7
Cc1cc[nH]c1C(=O)N[C@@H](Cc1cccc(F)c1)C(=O)NCc1ccc(N)nc1 [Example 269, 3-Methyl-1H-pyrrole-2-carboxylic acid [(S)-1-[(6-amino-pyridin-3-ylmethyl)-carbamoyl]-2-(3-fluoro-phenyl)-ethyl]-amide]	26.1
Nc1ccc(CNC(=O)[C@H](NC(=O)[C@@H](N)Cc2ccccc2)C(C2CCCCC2)C2CCCCC2)cn1 [Example 216, (S)-2-Amino-N-{(R)-1-[(6-amino-pyridin-3-ylmethyl)-carbamoyl]-2,2-dicyclohexyl-ethyl}-3-phenyl-propionamide]	24.4

These reach a lower IC50. Values come first.

IC50 [nM]	SMILES
8	CCC(C)[C@@H](NC)C(=O)N[C@@H](Cc1cc(F)c(F)cc1F)C(=O)NCc1ccc(N)nc1 (stereo partly drawn) [Example 48, (R)-3-Methyl-2-methylamino-pentanoic acid [(S)-1-[(6-amino-pyridin-3-ylmethyl)-carbamoyl]-2-(2,4,5-trifluoro-phenyl)-ethyl]-amide]
2	CC(C)N1CCC[C@@H]1C(=O)N[C@@H](Cc1ccc(F)c(F)c1)C(=O)NCc1ccc(N)nc1 [Example 6, (R)-1-Isopropyl-pyrrolidine-2-carboxylic acid [(S)-1-[(6-amino-pyridin-3-ylmethyl)-carbamoyl]-2-(3,4-difluoro-phenyl)-ethyl]-amide]
6.4	CCCN1CCC[C@@H]1C(=O)N[C@@H](Cc1ccc(F)c(F)c1)C(=O)NCc1ccc(N)nc1 [Example 132, (R)-1-Propyl-pyrrolidine-2-carboxylic acid [(S)-1-[(6-amino-pyridin-3-ylmethyl)-carbamoyl]-2-(3,4-difluoro-phenyl)-ethyl]-amide]
12.1	Cc1cc(C)c(C(=O)N[C@@H](Cc2ccc3ccccc3n2)C(=O)NCc2ccc(N)nc2)[nH]1 [Example 257, 3,5-Dimethyl-1H-pyrrole-2-carboxylic acid {(S)-1-[(6-amino-pyridin-3-ylmethyl)-carbamoyl]-2-quinolin-2-yl-ethyl}-amide]
5.4	CN1CCC[C@@H]1C(=O)N[C@@H](Cc1cccc(Cl)c1)C(=O)NCc1ccc(N)nc1 [Example 103, (R)-1-Methyl-pyrrolidine-2-carboxylic acid [(S)-1-[(6-amino-pyridin-3-ylmethyl)-carbamoyl]-2-(3-chloro-phenyl)-ethyl]-amide]
0.76	CCC(C)[C@@H](N)C(=O)N[C@@H](Cc1csc2ccccc12)C(=O)NCc1ccc(N)nc1 (stereo partly drawn) [Example 41, (R)-2-Amino-3-methyl-pentanoic acid {(S)-1-[(6-amino-pyridin-3-ylmethyl)-carbamoyl]-2-benzo[b]thiophen-3-yl-ethyl}-amide]
11.3	CC(C)[C@@H](C(=O)N[C@@H](Cc1ccc(F)cc1)C(=O)NCc1ccc(N)nc1)N(C)C(C)C [Example 370, (S)—N-[(S)-1-[(6-Amino-pyridin-3-ylmethyl)-carbamoyl]-2-(4-fluoro-phenyl)-ethyl]-2-(isopropyl-methyl-amino)-3-methyl-butyramide]
11	Cc1ccccc1C[C@H](NC(=O)[C@H]1CCCN1C(C)C)C(=O)NCc1ccc(N)nc1 [Example 121, (R)-1-Isopropyl-pyrrolidine-2-carboxylic acid {(S)-1-[(6-amino-pyridin-3-ylmethyl)-carbamoyl]-2-o-tolyl-ethyl}-amide]
6.3	Cc1nc(N)ccc1CNC(=O)[C@H](Cc1cccc2ccccc12)NC(=O)[C@H]1CCCN1C [Example 9, (R)-1-Methyl-pyrrolidine-2-carboxylic acid [(S)-1-[(6-amino-2-methyl-pyridin-3-ylmethyl)-carbamoyl]-2-naphthalen-1-yl-ethyl]-amide]
3.5	Cc1cc(C)c(C(=O)N[C@@H](Cc2ccc(Cl)cc2)C(=O)NCc2ccc(N)nc2)[nH]1 [Example 246, 3,5-Dimethyl-1H-pyrrole-2-carboxylic acid [(S)-1-[(6-amino-pyridin-3-ylmethyl)-carbamoyl]-2-(4-chloro-phenyl)-ethyl]-amide]
0.96	CC(C)[C@@H](N)C(=O)N[C@@H](CC1CCCC2CCCCC21)C(=O)NCc1ccc(N)nc1 (stereo partly drawn) [Example 14, (R)-2-Amino-N-[(S)-1-[(6-amino-pyridin-3-ylmethyl)-carbamoyl]-2-(decahydro-naphthalen-1-yl)-ethyl]-3-methyl-butyramide]
12.5	CN1CCC[C@@H]1C(=O)N[C@@H](Cc1cc(F)c(F)cc1F)C(=O)NCc1ccc(N)nc1 [Example 94, (R)-1-Methyl-pyrrolidine-2-carboxylic acid [(S)-1-[(6-amino-pyridin-3-ylmethyl)-carbamoyl]-2-(2,4,5-trifluoro-phenyl)-ethyl]-amide]
